Laboratory results taken from paper PMC7802074, “Azanitrile Inhibitors of the SmCB1 Protease Target Are Lethal to Schistosoma mansoni: Structural and Mechanistic Insights into Chemotype Reactivity” (ACS Infectious Diseases, 2020).
“And” between values parts separate entries of the source, which are not always exact repeats. Equal values may be shown once. Read-outs that look alike come from different tables or passages of the source.

Experiments:
recombinant SmCB1 = recombinant SmCB1 (Schistosoma mansoni, UniProt Q8MNY2, T185A/T300A); assay: SmCB1 kinetic inhibition assay with fluorogenic substrate Cbz-Phe-Arg-AMC; assay type: biochemical; settings: substrate Cbz-Phe-Arg-AMC; for SmCB1 inhibition k2nd (second-order rate constant): slow-binding azadipeptide nitriles
Sequence of recombinant SmCB1 (Q8MNY2 87-340 T185A/T300A): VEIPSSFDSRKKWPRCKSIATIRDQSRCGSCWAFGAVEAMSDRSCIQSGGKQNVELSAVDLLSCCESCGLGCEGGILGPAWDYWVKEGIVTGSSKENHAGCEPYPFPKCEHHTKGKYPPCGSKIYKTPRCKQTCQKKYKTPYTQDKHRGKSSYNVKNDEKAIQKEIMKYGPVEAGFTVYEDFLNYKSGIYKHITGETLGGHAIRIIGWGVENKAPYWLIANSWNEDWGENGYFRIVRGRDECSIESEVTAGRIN
Experimental: Inhibition measurements were performed in triplicates in 96-well microplates (100 μL assay volume) at 37 °C. SmCB1 (20–40 pM) was added to a mixture of the fluorogenic substrate Cbz-Phe-Arg-AMC (20 μM) and an inhibitor (0–100 μM) in 0.1 M sodium acetate, pH 5.5, containing 2.5 mM dithiothreitol and 0.1% PEG 6000. The substrate hydrolysis was monitored in an Infinite M1000 microplate reader (Tecan, Männedorf, Switzerland) at excitation and emission wavelengths of 360 and 465 nm, respectively, for up to 15 and 60 min for fast- and slow-binding inhibitors, respectively. […] For slow-binding inhibitors, an observed first-order rate constant kobs was calculated at each inhibitor concentration by fitting the progress curve to the equation P = vst + (vi – vs)(1 – […])/kobs + d, where P is the product formation, vs is the steady-state velocity, t is the reaction time, vi is the initial velocity, and d is the offset. The inhibition constant Ki′ was determined by nonlinear regression using the equation vs/v0 = 1/(1 + [I]/Ki′). The true inhibition constants Ki were then calculated using the equation Ki = Ki′/(1 + [S]/Km), where [S] is the substrate concentration and Km is the Michaelis constant. The apparent second-order rate constant k2nd′ was determined by fitting to the linear equation kobs = k2nd′[I] + koff, where koff is the first-order rate constants for the dissociation of the enzyme–inhibitor complex and the true constant k2nd was calculated by the correction k2nd = k2nd′(1 + [S]/Km). […] In none of the assay systems did the final concentration of DMSO exceed 1.5%.

[1] = tested on: S. mansoni newly transformed schistosomula (NTS); assay: Schistosome phenotypic assay; assay type: cell-based, Schistosoma mansoni; settings: for Descriptors Day 4 (phenotypic changes) / Descriptors Day 1 (phenotypic changes) / Descriptors Day 2 (phenotypic changes) / Descriptors Day 3 (phenotypic changes): 10 µM inhibitor; for Severity score Day 1 / Severity score Day 3 / Severity score Day 2 / Severity score Day 4: 10 μM inhibitor, scale 0 (no effect) to 4 (severe); for Severity score Day 1: 24 h; for Severity score Day 2: 48 h
Experimental: Newly transformed schistosomula (NTS) of S. mansoni were prepared by mechanically transforming infective larvae (cercariae) as described previously.[70],[71] NTS (200–300 parasites) were incubated in 200 μL of Basch Medium 169 containing 5% FBS, 100 U mL^–1 penicillin, and 100 μg mL^–1 streptomycin at 5% CO2 and 37 °C.[70],[72],[73] Inhibitors were added at the final concentration of 10 μM,[20],[69] and changes in phenotypes were observed every 24 h for up to 4 days. A constrained nomenclature of “descriptors” is used to record the multiple and dynamic changes in movement, shape, and translucence of which the schistosome parasite is capable (Table S3).[70] These descriptors are then converted into an ordinal “severity score” system from 0 (no effect) to 4 (maximum effect), which allows for the relative comparison of compound effects, as described.[74],[75] Images of NTS were captured using a Zeiss Axiovert 40 C inverted microscope (10× objective) and a Zeiss AxioCam MRc digital camera controlled by AxioVision 40 (v. 4.8.1.0) software.

[2] = SmCB1 inhibition Ki, Table S2, carbadipeptide nitriles
[3] = SmCB1 inhibition Ki, kinetic activity assay, pH 5.5, 37 °C
[4] = Table S2, carbadipeptide nitriles, read-out: SmCB1 inhibition Ki

Row | Structure (SMILES) | Ki (recombinant SmCB1; [2]) [nM] | Ki (recombinant SmCB1; [3]) [nM] | Descriptors Day 4 (phenotypic changes) [1] | Severity score Day 1 [1] | Severity score Day 3 [1] | Descriptors Day 1 (phenotypic changes) [1] | Descriptors Day 2 (phenotypic changes) [1] | Severity score Day 2 [1] | Severity score Day 4 [1] | SmCB1 inhibition k2nd (second-order rate constant) (recombinant SmCB1) | Descriptors Day 3 (phenotypic changes) [1] | Ki (recombinant SmCB1; [4]) [nM]
1 | CC(C)C[C@@H](C(=O)NCC#N)N(C)C(=O)c1ccc(-c2noc(-c3cccs3)n2)cc1 [Compound 6c] | > 10000 | > 100000 | R | 0 | 0 | – | – | – | – | – | – | –
2 | CN(C#N)N(C)C(=O)C1(NC(=O)c2ccc(-c3noc(-c4cccs4)n3)cc2)CCCCC1 [Compound 7a] | – | 229 ± 7 | – | 3 | 4 | R, Unc, Dark | Deg | 4 | 4 | – | – | –
3 | N#CCNC(=O)C1(NC(=O)c2ccc(-c3noc(-c4cccs4)n3)cc2)CCCCC1 [Compound 7c] | > 10000 | > 100000 | – | 0 | 0 | – | – | 0 | 0 | – | – | –
4 | C[C@@H](C#N)NC(=O)[C@H](Cc1ccccc1)NC(=O)OCc1ccccc1 [Compound 8c] | > 10000 | – | – | 0 | 0 | – | – | 0 | 0 | – | – | –
5 | CN(CC#N)C(=O)[C@H](Cc1ccccc1)NC(=O)OCc1ccccc1 [Compound 9c] | > 10000 | > 100000 | – | 0 | 0 | – | – | 0 | 0 | – | – | –
6 | CN(C(=O)[C@H](Cc1ccccc1)NC(=O)OCc1ccccc1)N(C#N)Cc1ccccc1 [Compound 10a] | – | 48.9 ± 4.7 | – | 2 | 4 | R, Unc | Deg | 4 | 4 | 1.5 ± 0.1 10^3 M^-1 s^-1 | – | –
7 | C[C@@H](C#N)N(C)C(=O)[C@H](Cc1ccccc1)NC(=O)OCc1ccccc1 [Compound 10c] | > 10000 | > 100000 | – | 0 | 0 | – | – | 0 | 0 | – | – | –
8 | CCC(C)C(NC(=O)OCc1ccccc1)C(=O)N(C)N(C)C#N (centres unmarked) [Compound 12a] | – | 71.7 ± 4.4 | – | 4 and 4/4 | 4 | Deg | – | 4 and 4/4 | 4 | – | – | –
9 | COc1ccc(C[C@H](NC(=O)OCc2ccccc2)C(=O)N(C)N(C)C#N)cc1 [Compound 13a] | – | 80.6 ± 7.1 | – | 4 and 4/4 | 4 | Deg | Deg | 4 and 4/4 | 4 | – | – | –
10 | CC(C)[C@H](NC(=O)OCc1ccccc1)C(=O)N(C)N(C)C#N [Compound 14a] | – | 88.3 ± 10.4 | – | 3 | 4 | R, Unc, Dark | Deg | 4 | 4 | – | – | –
11 | C[C@H](NC(=O)OCc1ccccc1)C(=O)N(C)N(C)C#N [Compound 15a] | – | 714 ± 58 | – | 2 | 4 | R, Unc | Deg | 4 | 4 | – | – | –
12 | Cc1nc(-c2ccc(CNC(=O)N[C@@H](CC(C)C)C(=O)N(C)N(C)C#N)cc2)no1 [Compound 16a] | – | 30 ± 4.1 | Deg | 0 | 3 | – | R, Unc | 2 | 4 | 9.2 ± 0.8 10^3 M^-1 s^-1 | R, Unc, Dark | –
13 | CC(C)C[C@H](NC(=O)NCc1ccc(-c2noc(-c3cccs3)n2)cc1)C(=O)N(C)N(C)C#N [Compound 17a] | – | 58.3 ± 2.8 | – | 0 and 0/0 | 0 | – | – | 0 and 0/0 | 0 | 3.1 ± 0.6 10^3 M^-1 s^-1 | – | –
14 | CC(C)C[C@H](NC(=O)Nc1ccccc1)C(=O)N(C)N(C)C#N [Compound 18a] | – | 112 ± 11 | – | 2 | 4 | R, Unc | Deg | 4 | 4 | – | – | –
15 | CCCC[C@H](NC(=O)OC(C)(C)C)C(=O)NCC#N [Gü967] | – | – | – | 0 | 0 | – | – | 0 | 0 | – | – | 870 ± 100
16 | CC(C)(C)OC(=O)N[C@@H](Cc1cccs1)C(=O)NCC#N [Gü969] | – | – | – | 0 | 0 | – | – | 0 | 0 | – | – | 620 ± 50
17 | CC(C)(C)OC(=O)N[C@@H](Cc1ccc(-c2ccccc2)cc1)C(=O)NCC#N [Gü1124] | – | – | – | 0 | 0 | – | – | 0 | 0 | – | – | 270 ± 50
18 | N#CCNC(=O)[C@H](Cc1ccccc1)NC(=O)c1ccc(-c2ccccc2)cc1 [Gü1136] | – | – | – | 0 | 0 | – | – | 0 | 0 | – | – | 53 ± 12
19 | N#CCNC(=O)[C@H](Cc1ccc(O)cc1)NC(=O)OCc1ccccc1 [Gü2031] | – | – | – | 0 | 0 | – | – | 0 | 0 | – | – | 760 ± 220
20 | CC(C)C[C@H](NC(=O)c1ccc(-c2ccccc2)cc1)C(=O)NCC#N [Gü2420] | – | – | R, Dark | 0 | 2 | – | R, Dark | 2 | 2 | – | R, Dark | 56 ± 13
